# Strand notation (5' to 3'): a small letter for the sugar, then the base; units joined by * are phosphorothioate-linked, units joined directly phosphodiester-linked; [ ] holds rarer units or linkages, { } end groups; capitals alone tell only the bases. e = 2'-O-(2-methoxyethyl) (MOE); k = constrained ethyl (cEt); [5mC] = 5-methylcytosine; d = 2'-deoxy (DNA); m = 2'-O-methyl
# Tested on: Yap1 mRNA
# Experiment: Antisense inhibition of human Yap1 in SNU-449 cells by modified oligonucleotides, single dose (Example 5, RTS36584)
# Format: cell-based
# Method in brief: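 SNU-449 cells (10,000/well) took up 2,000 nM oligonucleotide by free uptake for about 48 h. Yap1 mRNA was measured by qRT-PCR with primer probe set RTS36584 and normalised to RIBOGREEN total RNA. Values are % of untreated control; asterisked oligos target the amplicon region.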
# [1] = Table 46, Yap1 mRNA as percent of untreated control, SNU-449 cells, single dose
# [2] = Table 41, SNU-449 cells, 10,000 cells per well, free uptake, 2,000 nM modified oligonucleotide, approximately 48 hours, RTS36584, normalized to RIBOGREEN, Yap1 mRNA relative to untreated control cells
# [3] = Table 39, SNU-449 cells, 10,000 cells per well, free uptake, 2,000 nM oligonucleotide, approx. 48 hours, RTS36584, normalized to RIBOGREEN, Yap1 mRNA relative to untreated control
# [4] = Table 49, Yap1 mRNA level relative to untreated control, modified oligonucleotides targeting SEQ ID NO.: 1 and 2
# [5] = Table 42 (separate experiment), SNU-449 cells, 10,000 cells per well, free uptake, 2,000 nM modified oligonucleotide, approximately 48 hours, RTS36584, normalized to RIBOGREEN, Yap1 mRNA relative to untreated control cells
# [6] = Table 44 experiment, SNU-449 cells, 10,000 cells per well, free uptake, 2,000 nM, approximately 48 hours, RTS36584, Yap1 mRNA normalized to RIBOGREEN, relative to untreated control cells
# [7] = Table 45, Yap1 mRNA as percent of untreated control, SNU-449 cells, single dose
# [8] = Yap1 mRNA, percent of untreated control, modified oligonucleotides targeting SEQ ID NO: 1 and 2, Table 47
# [9] = Table 43 experiment, SNU-449 cells, 10,000 cells per well, free uptake, 2,000 nM, approximately 48 hours, RTS36584, Yap1 mRNA normalized to RIBOGREEN, relative to untreated control cells
# [10] = Table 51, Yap1 mRNA remaining as percent of untreated control (UT), SNU-449 cells, single dose
# [11] = Table 40 (separate experiment), SNU-449 cells, 10,000 cells per well, free uptake, 2,000 nM oligonucleotide, approx. 48 hours, RTS36584, normalized to RIBOGREEN, Yap1 mRNA relative to untreated control
# [12] = Table 50, Yap1 mRNA remaining as percent of untreated control (UT), SNU-449 cells, single dose
# [13] = Table 48, Yap1 mRNA level relative to untreated control, modified oligonucleotides targeting SEQ ID NO.: 1 and 2
# [14] = Table 52, Yap1 mRNA, modified oligonucleotides targeting SEQ ID NO: 1 and 2
substance,measurement,setting,value
1198866 (kT*kA*dA*dT*dA*dT*dT*dG*d[5mC]*dA*dA*kT*e[5mC]*kT*eG*kT; antisense) [Compound 1198866],YAP1 (% UT),[1],60 % UT
1198774 (kA*eA*k[5mC]*dT*d[5mC]*dT*dT*dA*dT*dA*dT*dG*eG*eT*kT*kT; antisense) [Compound 1198774],YAP1 (% UTC),[2],106 % UTC
1198770 (k[5mC]*eT*kT*dA*dT*dA*dT*dG*dG*dT*dT*dT*eT*eG*kT*kG; antisense) [Compound 1198770],YAP1 (% UTC),[2],40 % UTC
1198423 (kT*d[5mC]*dT*dT*dA*dT*dA*dT*dG*dG*dT*kT*eT*kT*eG*kT) [Compound 1198423],YAP1 (% UTC),[3],10 % UTC
1198545 (antisense kA*kA*kA*dT*dT*dG*dT*d[5mC]*dT*d[5mC]*dA*dT*kG*k[5mC]*k[5mC]*eT) [Compound 1198545],YAP1 (% UT),[4],32 % UT
1198847 (kT*kT*dT*dA*dG*dG*dA*dT*dG*d[5mC]*dA*kT*eG*kG*eT*kT; antisense) [Compound 1198847],YAP1 (% UT),[1],51 % UT
1198702 (kT*kT*dT*dA*dA*dA*dG*dT*dG*dT*dA*dT*kG*eT*k[5mC]*eA; antisense) [Compound 1198702],YAP1 (% UTC),[5],74 % UTC
1198476 (antisense kA*kG*dG*dT*dA*dT*dA*dA*d[5mC]*dT*dG*eG*kG*e[5mC]*kA*eA) [Compound 1198476],YAP1 (% UTC),[6],31 % UTC
1198894 (kG*kA*dA*dA*dT*dT*dG*dT*d[5mC]*dT*d[5mC]*kA*dT*kG*d[5mC]*k[5mC]; antisense) [Compound 1198894],YAP1 (% UTC),[7],57 % UTC
1198844 (kA*kT*dA*dG*dT*dG*d[5mC]*dT*dT*dT*dG*kG*eA*kA*eG*kA; antisense) [Compound 1198844],YAP1 (% UT),[1],56 % UT
1198512 (kA*kA*d[5mC]*dT*d[5mC]*dT*dT*dA*dT*dA*dT*eG*kG*eT*kT*eT; antisense) [Compound 1198512],YAP1 (% UTC),[6],62 % UTC
1009324 (kA*kG*kT*dA*dT*dG*dT*dG*dG*d[5mC]*dA*dA*dT*kA*kA*kT; antisense) [Compound 1009324],YAP1 (% UT),[8],27 % UT
1198899 (kA*kG*dT*dA*dT*dG*dT*dG*dG*d[5mC]*dA*kA*dT*kA*dA*kT) [Compound 1198899],YAP1 (% UTC),[6],75 % UTC
1198451 (k[5mC]*dT*dA*dA*dG*dT*dA*dA*dG*dG*dT*kT*eT*k[5mC]*e[5mC]*k[5mC]; antisense) [Compound 1198451],YAP1 (% UTC),[3],48 % UTC
1198484 (antisense kG*k[5mC]*dA*d[5mC]*dT*dT*dT*dT*dA*d[5mC]*dA*eT*kT*eA*kG*eG) [Compound 1198484],YAP1 (% UTC),[9],18 % UTC
1198790 (antisense kT*eA*kA*dA*dG*dT*dG*dT*dA*dT*dG*dT*e[5mC]*eA*kG*kA) [Compound 1198790],YAP1 (% UTC),[2],27 % UTC
1095623 (antisense k[5mC]*kA*d[5mC]*dT*dG*dA*dG*dG*dT*dA*dT*eA*kA*e[5mC]*kT*eG) [Compound 1095623],YAP1 (% UTC),[6],57 % UTC
1198479 (antisense kT*kT*dA*d[5mC]*dA*dT*dT*dA*dG*dG*dA*eA*k[5mC]*eA*kA*eG) [Compound 1198479],YAP1 (% UTC),[9],65 % UTC
1198475 (antisense kG*kG*dT*dA*dT*dA*dA*d[5mC]*dT*dG*dG*eG*k[5mC]*eA*kA*eA) [Compound 1198475],YAP1 (% UTC),[6],25 % UTC
1198887 (kG*kA*d[5mC]*dT*dA*dA*dG*dT*dA*dA*dG*kG*eT*kT*eT*k[5mC]; antisense) [Compound 1198887],YAP1 (% UT),[1],71 % UT
1198365 (k[5mC]*kT*kA*dA*dG*dT*dA*dA*dG*dG*dT*dT*kT*e[5mC]*k[5mC]*e[5mC]; antisense) [Compound 1198365],YAP1 (% UT),[4],13 % UT
1198734 (kA*eG*kG*dT*dA*dT*dA*dA*d[5mC]*dT*dG*dG*eG*e[5mC]*kA*kA; antisense) [Compound 1198734],YAP1 (% UTC),[2],29 % UTC
1197296 (kT*kG*k[5mC]*dT*mU*dT*dG*dG*dA*dA*dG*dA*dT*k[5mC]*kT*kG) [Compound 1197296],YAP1 (% UT),[10],36 % UT
1198750 (kG*eG*kA*dA*dG*dA*dT*d[5mC]*dT*dG*dA*dA*eA*e[5mC]*kT*k[5mC]; antisense) [Compound 1198750],YAP1 (% UTC),[11],32 % UTC
1198488 (antisense kG*kG*dA*dA*dG*dA*dT*d[5mC]*dT*dG*dA*eA*kA*e[5mC]*kT*e[5mC]) [Compound 1198488],YAP1 (% UTC),[6],66 % UTC
1200799 (kA*kT*kA*dT*dT*mA*dG*dA*dG*dT*dA*dT*dG*kT*kG*kG; antisense) [Compound 1200799],YAP1 (% UT),[10],27 % UT
1198535 (kA*kA*dG*dT*dA*dA*dG*dG*dT*dT*dT*e[5mC]*k[5mC]*e[5mC]*kA*eG; antisense) [Compound 1198535],YAP1 (% UTC),[6],35 % UTC
1198531 (k[5mC]*kT*dT*dT*dA*dA*dA*dG*dT*dG*dT*eA*kT*eG*kT*e[5mC]; antisense) [Compound 1198531],YAP1 (% UTC),[6],21 % UTC
1074462 (kG*kG*kA*dA*dA*dT*dT*dG*dT*d[5mC]*dT*d[5mC]*dA*kT*kG*k[5mC]; antisense) [Compound 1074462],YAP1 (% UT),[8],7 % UT
1198686 (antisense kG*kA*d[5mC]*dA*dA*d[5mC]*dT*d[5mC]*dT*dT*dA*dT*kA*eT*kG*eG) [Compound 1198686],YAP1 (% UTC),[5],78 % UTC
1200784 (kT*kG*kT*d[5mC]*dT*mC*dA*dT*dG*d[5mC]*d[5mC]*dT*dT*kA*kT*kA; antisense) [Compound 1200784],YAP1 (% UT),[10],19 % UT
1198778 (kA*eT*kA*dT*dT*dG*d[5mC]*dA*dA*dT*d[5mC]*dT*eG*eT*k[5mC]*kT; antisense) [Compound 1198778],YAP1 (% UTC),[11],55 % UTC
1198569 (antisense CACTTTTACATTAGGA; chemistry not fully specified) [Compound 1198569],YAP1 (% UT),[4],14 % UT
1198503 (k[5mC]*kA*dG*dA*dT*dT*dT*dA*dG*dG*dA*eT*kG*e[5mC]*kA*eT; antisense) [Compound 1198503],YAP1 (% UTC),[6],31 % UTC
1198789 (antisense kA*eA*kA*dG*dT*dG*dT*dA*dT*dG*dT*d[5mC]*eA*eG*kA*kA) [Compound 1198789],YAP1 (% UTC),[2],22 % UTC
1198368 (kA*kG*kA*d[5mC]*dT*dA*dA*dG*dT*dA*dA*dG*kG*eT*kT*eT; antisense) [Compound 1198368],YAP1 (% UT),[4],79 % UT
1198626 (kA*kG*kA*d[5mC]*dT*dA*dA*dG*dT*dA*dA*dG*kG*kT*kT*eT; antisense) [Compound 1198626],YAP1 (% UT),[12],99 % UT
1197202 (antisense kA*k[5mC]*kT*d[5mC]*dT*dT*dA*dT*dA*dT*dG*dG*dT*kT*kT*kT) [Compound 1197202],YAP1 (% UT),[13],27 % UT
1198813 (antisense kA*kG*dT*dA*dT*dG*dT*dG*dG*d[5mC]*dA*kA*eT*kA*eA*kT) [Compound 1198813],YAP1 (% UT),[1],55 % UT
1197210 (antisense kA*kT*kG*dT*dA*dA*dT*dA*dT*dT*dG*d[5mC]*dA*kA*kT*k[5mC]) [Compound 1197210],YAP1 (% UT),[8],105 % UT
1197307 (kA*kT*kA*dT*mU*dG*d[5mC]*dA*dA*dT*d[5mC]*dT*dG*kT*k[5mC]*kT; antisense) [Compound 1197307],YAP1 (% UT),[10],88 % UT
1197285 (kA*kG*kA*dG*mU*dA*dT*dG*dT*dG*dG*d[5mC]*dA*kA*kT*kA; antisense) [Compound 1197285],YAP1 (% UT),[12],28 % UT
1200808 (kA*k[5mC]*kT*dG*dA*mG*dG*dT*dA*dT*dA*dA*d[5mC]*kT*kG*kG; antisense) [Compound 1200808],YAP1 (% UT),[14],45 % UT
1200859 (kA*kA*kA*dG*dT*mG*dT*dA*dT*dG*dT*d[5mC]*dA*kG*kA*kA; antisense) [Compound 1200859],YAP1 (% UT),[14],28 % UT
1198911 (kG*kA*dG*dG*dT*dA*dT*dA*dA*d[5mC]*dT*kG*dG*kG*d[5mC]*kA; antisense) [Compound 1198911],YAP1 (% UTC),[7],26 % UTC
1198316 (kG*kG*kA*dA*dG*dA*dT*d[5mC]*dT*dG*dA*dA*kA*e[5mC]*kT*e[5mC]; antisense) [Compound 1198316],YAP1 (% UT),[13],49 % UT
1198389 (kG*dG*dT*dA*dT*dA*dA*d[5mC]*dT*dG*dG*kG*e[5mC]*kA*eA*kA; antisense) [Compound 1198389],YAP1 (% UTC),[3],28 % UTC
1198733 (kG*eG*kT*dA*dT*dA*dA*d[5mC]*dT*dG*dG*dG*e[5mC]*eA*kA*kA; antisense) [Compound 1198733],YAP1 (% UTC),[2],47 % UTC
1198301 (kT*k[5mC]*kT*dA*dT*dA*dT*dT*dA*dG*dA*dG*kT*eA*kT*eG; antisense) [Compound 1198301],YAP1 (% UT),[13],43 % UT

# Source: patent publication US11214803B2, “Modulators of YAP1 expression” (Ionis Pharmaceuticals, Inc., priority 2019, dated 2022)
